ChEMBL document CHEMBL4354862, “Peptidomimetic Vinyl Heterocyclic Inhibitors of Cruzain Effect Antitrypanosomal Activity” (J Med Chem, 2020)

Columns and labels:
[1] = molecular target: Cruzipain (Trypanosoma cruzi) (UniProt P25779); experiment: Irreversible inhibition of Trypanosoma cruzi cruzain assessed as ratio of Kinact to Ki using Cbz-Phe-Arg-AMC as substrate by fluorescence assay
Cruzipain [2] = molecular target: T1, Cruzipain (Trypanosoma cruzi, UniProt P25779); experiment: Inhibition of Trypanosoma cruzi cruzain assessed as rate constant for enzyme-inhibitor complex using Cbz-Phe-Arg-AMC as substrate and measured up to 40 mins by fluorescence assay; conditions: read-out: Ki(app)
T1 sequence (P25779 whole entry): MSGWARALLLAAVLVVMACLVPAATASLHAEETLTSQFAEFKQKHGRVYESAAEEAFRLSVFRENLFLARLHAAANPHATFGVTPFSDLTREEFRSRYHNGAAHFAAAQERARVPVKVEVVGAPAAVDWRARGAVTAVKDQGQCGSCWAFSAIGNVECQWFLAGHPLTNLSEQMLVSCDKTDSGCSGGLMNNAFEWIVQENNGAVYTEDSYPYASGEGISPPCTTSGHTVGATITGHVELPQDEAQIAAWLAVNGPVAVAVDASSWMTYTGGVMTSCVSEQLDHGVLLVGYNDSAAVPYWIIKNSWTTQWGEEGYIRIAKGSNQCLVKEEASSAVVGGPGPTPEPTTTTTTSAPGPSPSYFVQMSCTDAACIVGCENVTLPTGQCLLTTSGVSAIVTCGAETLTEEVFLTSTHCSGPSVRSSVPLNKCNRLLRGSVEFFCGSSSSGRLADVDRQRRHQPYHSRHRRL

[3] = test system: Trypanosoma brucei brucei; experiment: Antitrypanosomal activity against Trypanosoma brucei brucei ATCC PRA-381 procyclic trypomastigotes supplemented with fresh medium containing compound daily for 4 days by coulter counting method; type: functional, organism-based; conditions: ATCC PRA-381, 96 h
[4] = test system: Trypanosoma brucei brucei; experiment: Antitrypanosomal activity against Trypanosoma brucei brucei ATCC PRA-383 bloodstream forms supplemented with fresh medium containing compound daily for 4 days by coulter counting method; conditions: ATCC PRA-383, 96 h
Trypanosoma cruzi [5] = experiment: Antitrypanosomal activity against axenic cultures of Trypanosoma cruzi Y ATCC 50832GFP epimastigotes supplemented with fresh medium containing compound daily for 5 days by coulter counting method; type: functional, organism-based; conditions: 120 h
[6] = Solubility of the compound in 10% DMSO v/v at 1 to 200 uM measured up to 120 mins; type: physicochemical; conditions: 2 h
[7] = Glutathione reactivity of the compound in 10% DMSO (v/v)/pH 8 Tris buffer assessed as GSH adduct formation by measuring retention time at 0.5 mM by HPLC-MS analysis; type: ADME; conditions: pH 8, 500 µM
[8] = Glutathione reactivity of the compound in 10% DMSO (v/v)/pH 8 Tris buffer assessed as GSH adduct formation by measuring equilibrium constant measured after 90 mins by HPLC-MS analysis; type: ADME
[9] = Glutathione reactivity of the compound in 10% DMSO (v/v)/pH 8 Tris buffer assessed as GSH adduct formation by measuring rate of-thiolation at 2:1 molar ratio of GSH/inhibitor by HPLC-MS analysis; type: ADME
[10] = Selectivity ratio of Ki for human Cathepsin L to Ki for Trypanosoma cruzi cruzain; type: toxicity
Trypanosoma cruzi [11] = experiment: Antitrypanosomal activity against Trypanosoma cruzi Ca-I/72 infected in mouse C2C12 cells measured after 48 hrs by 4',6-diamidino-2-phenylindole staining based microscopic analysis; type: functional, organism-based; conditions: Ca-I/72, C2C12, 48 h
NHDF = experiment: Cytotoxicity against HDF cells assessed as reduction in cell viability measured after 48 hrs by resazurin dye based fluorescence assay; conditions: human
C2C12 = experiment: Cytotoxicity against mouse C2C12 cells assessed as reduction in cell viability measured after 48 hrs by 4',6-diamidino-2-phenylindole staining based microscopic analysis; conditions: c2c12, 48 h
[12] = Selectivity ratio of Ki for human Cathepsin B to Ki for Trypanosoma cruzi cruzain; type: toxicity
[13] = Selectivity ratio of Ki for human Cathepsin S to Ki for Trypanosoma cruzi cruzain; type: toxicity
Trypanosoma cruzi [14] = experiment: Potency index, ratio of K11777 IC50 to test compound IC50 for axenic cultures of Trypanosoma cruzi Y ATCC 50832GFP epimastigotes; type: functional
[15] = Selectivity index, ratio of CC50 for HDF cells to EC50 for Trypanosoma cruzi Ca-I/72 infected in mouse C2C12 cells; type: toxicity, cell-based; conditions: read-out: Ratio CC50/EC50
[16] = molecular target: Cruzipain (Trypanosoma cruzi) (UniProt P25779); experiment: Reversible inhibition of Trypanosoma cruzi cruzain assessed as rate constant K4 using Cbz-Phe-Arg-AMC as substrate preincubated for 1 hr followed by enzyme-compound mixture dilution in presence of substrate by fluorescence assay
Trypanosoma cruzi [17] = experiment: Antitrypanosomal activity against Trypanosoma cruzi Brazil epimastigotes measured after 48 hrs by [3H]thymidine incorporation based beta-counting method; type: functional, organism-based
[18] = Glutathione reactivity of the compound in 10% DMSO (v/v)/pH 8 Tris buffer assessed as GSH adduct formation by measuring rate of-thiolation at 0.5 mM by HPLC-MS analysis; type: ADME; conditions: pH 8, 500 µM
Procathepsin L = Procathepsin L (Homo sapiens, UniProt P07711); experiment: Inhibition of human Cathepsin L assessed as rate constant for enzyme-inhibitor-substrate complex using Cbz-Phe-Arg-AMC as substrate measured up to 40 mins by fluorescence assay
Chain of Procathepsin L (P07711 whole entry): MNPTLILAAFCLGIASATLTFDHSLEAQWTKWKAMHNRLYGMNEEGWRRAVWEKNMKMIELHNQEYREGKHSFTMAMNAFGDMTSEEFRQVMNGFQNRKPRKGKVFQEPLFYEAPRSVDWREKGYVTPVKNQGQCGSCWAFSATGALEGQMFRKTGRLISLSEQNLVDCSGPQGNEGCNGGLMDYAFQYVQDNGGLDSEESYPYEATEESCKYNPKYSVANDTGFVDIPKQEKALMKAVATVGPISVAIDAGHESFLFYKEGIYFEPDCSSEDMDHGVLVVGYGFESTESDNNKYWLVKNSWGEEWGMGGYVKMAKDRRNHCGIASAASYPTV

Cruzipain [19] = molecular target: T1, Cruzipain; experiment: Inhibition of Trypanosoma cruzi cruzain using Cbz-Phe-Arg-AMC as substrate and measured up to 40 mins by fluorescence assay
Cathepsin S = Cathepsin S (Homo sapiens, UniProt P25774); experiment: Inhibition of recombinant human Cathepsin S expressed in Escherichia coli assessed as rate constant for enzyme-inhibitor-substrate complex using Cbz-Phe-Arg-AMC as substrate measured up to 40 mins by fluorescence assay
Chain of Cathepsin S (P25774 whole entry): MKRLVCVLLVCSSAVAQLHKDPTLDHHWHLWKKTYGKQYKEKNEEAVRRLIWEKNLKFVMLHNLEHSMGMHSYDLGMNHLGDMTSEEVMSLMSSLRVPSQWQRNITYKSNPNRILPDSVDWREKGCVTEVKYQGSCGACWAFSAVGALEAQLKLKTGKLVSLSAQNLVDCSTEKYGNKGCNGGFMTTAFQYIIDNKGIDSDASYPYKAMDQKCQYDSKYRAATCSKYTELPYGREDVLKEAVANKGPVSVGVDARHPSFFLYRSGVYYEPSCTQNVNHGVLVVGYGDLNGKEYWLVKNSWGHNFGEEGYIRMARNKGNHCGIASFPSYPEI

[20] = molecular target: Cruzipain (Trypanosoma cruzi) (UniProt P25779); experiment: Reversible inhibition of Trypanosoma cruzi cruzain assessed as rate constant K3 using Cbz-Phe-Arg-AMC as substrate preincubated for 1 hr followed by enzyme-compound mixture dilution in presence of substrate by fluorescence assay
Cathepsin B = Cathepsin B (Homo sapiens, UniProt P07858); experiment: Inhibition of human Cathepsin B assessed as rate constant for enzyme-inhibitor-substrate complex using Cbz-Phe-Arg-AMC as substrate measured up to 40 mins by fluorescence assay

Chain of Cruzipain (Trypanosoma cruzi) (P25779 123-467 limits assumed): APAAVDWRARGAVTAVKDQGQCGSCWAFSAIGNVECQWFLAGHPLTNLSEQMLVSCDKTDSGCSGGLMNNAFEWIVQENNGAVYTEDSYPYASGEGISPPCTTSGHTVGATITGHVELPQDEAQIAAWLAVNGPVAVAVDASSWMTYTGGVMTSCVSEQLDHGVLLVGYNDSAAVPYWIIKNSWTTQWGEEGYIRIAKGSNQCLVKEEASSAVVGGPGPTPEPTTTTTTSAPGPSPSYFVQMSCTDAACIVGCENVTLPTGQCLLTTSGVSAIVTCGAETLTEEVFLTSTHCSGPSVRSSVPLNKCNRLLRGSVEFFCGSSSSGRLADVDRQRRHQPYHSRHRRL

NC(=O)/C=C/[C@H](Cc1ccccc1)NC(=O)[C@H](Cc1ccccc1)NC(=O)OCc1ccccc1
kinact/Ki [1]: 21.7 M⁻¹ s⁻¹

CN1CCN(C(=O)N[C@@H](Cc2ccccc2)C(=O)N[C@H](/C=C/c2ncccn2)CCc2ccccc2)CC1
Ki (Cruzipain [2]): > 10 µM | EC50 [3]: 15 µM | EC50 [4]: > 20 µM | EC50 (Trypanosoma cruzi [5]): 20 µM

O=C(N[C@@H](Cc1ccccc1)C(=O)N[C@H](/C=C/c1ccccc1)Cc1ccccc1)OCc1ccccc1
solubility [6]: <= 2 uM

C[n+]1ccsc1/C=C/[C@H](Cc1ccccc1)NC(=O)[C@H](Cc1ccccc1)NC(=O)OCc1ccccc1.[I-]
Retention_time [7]: 3.61 min | Ke [8]: 930 M⁻¹ | K [9]: 15 M⁻¹ s⁻¹

C[n+]1ccccc1/C=C/[C@H](Cc1ccccc1)NC(=O)[C@H](Cc1ccccc1)NC(=O)OCc1ccccc1.[I-]
Ratio Ki [10]: >= 3 | EC50 (Trypanosoma cruzi [11]): 9.9 µM | solubility [6]: >= 50 uM | CC50 (NHDF): > 100 µM | CC50 (C2C12): > 10 µM | EC50 [3]: 13 µM | EC50 [4]: 6.6 µM | Ke [8]: 7400 M⁻¹ | Ratio Ki [12]: 40 | K [9]: 37 M⁻¹ s⁻¹ | Ratio Ki [13]: >= 3 | EC50 (Trypanosoma cruzi [5]): 8.7 µM | Ratio IC50 (Trypanosoma cruzi [14]): 10 | selectivity ratio [15]: > 10

NC(=O)/C=C/[C@H](CCc1ccccc1)NC(=O)[C@H](Cc1ccccc1)NC(=O)OCc1ccccc1
kinact/Ki [1]: 1700 M⁻¹ s⁻¹

COc1ccnc(/C=C/[C@H](CCc2ccccc2)NC(=O)[C@H](Cc2ccccc2)NC(=O)OCc2ccccc2)c1
Ki (Cruzipain [2]): > 5 µM

O=C(N[C@@H](Cc1ccccc1)C(=O)N[C@H](/C=C/c1ncccn1)Cc1ccccc1)OCc1ccccc1
solubility [6]: >= 100 uM | CC50 (NHDF): > 100 µM | CC50 (C2C12): > 10 µM | K [16]: 0.0018 s⁻¹

CN1CCN(C(=O)N[C@@H](Cc2ccccc2)C(=O)N[C@H](/C=C/S(=O)(=O)c2ccccc2)CCc2ccccc2)CC1 [K-777]
EC50 (Trypanosoma cruzi [11]): 0.7 µM | Retention_time [7]: 4.64 min | CC50 (NHDF): 60 to 100 µM | EC50 (Trypanosoma cruzi [17]): 60 µM | CC50 (C2C12): > 10 µM | EC50 [3]: 1.7 µM | EC50 [4]: 0.09 µM | EC50 (Trypanosoma cruzi [5]): > 20 µM | K [18]: 0.00028 s⁻¹

O=C(N[C@@H](Cc1ccccc1)C(=O)N[C@H](/C=C/c1ccc([N+](=O)[O-])cc1)Cc1ccccc1)OCc1ccccc1
solubility [6]: <= 2 uM

O=C(N[C@@H](Cc1ccccc1)C(=O)N[C@H](/C=C/c1ccccn1)Cc1ccccc1)OCc1ccccc1
solubility [6]: <= 30 uM | CC50 (NHDF): > 100 µM | CC50 (C2C12): > 10 µM | EC50 (Trypanosoma cruzi [5]): > 20 µM | K [16]: 0.0012 s⁻¹

O=C(N[C@@H](Cc1ccccc1)C(=O)N[C@H](/C=C/c1ncco1)Cc1ccccc1)OCc1ccccc1
CC50 (NHDF): > 100 µM | EC50 [3]: 27 µM | EC50 (Trypanosoma cruzi [5]): > 20 µM

CN1CCN(C(=O)N[C@@H](Cc2ccccc2)C(=O)N[C@H](/C=C/C(N)=O)CCc2ccccc2)CC1
kinact/Ki [1]: 1900 M⁻¹ s⁻¹

C[n+]1ccccc1/C=C/[C@H](CCc1ccccc1)NC(=O)[C@H](Cc1ccccc1)NC(=O)OCc1ccccc1
Ki (Procathepsin L): 0.88 µM | Ratio Ki [10]: > 10 | EC50 (Trypanosoma cruzi [11]): 5.4 µM | Retention_time [7]: 4.72 min | solubility [6]: >= 50 uM | CC50 (NHDF): > 100 µM | Ki (Cruzipain [2]): 0.76 µM | CC50 (C2C12): > 10 µM | EC50 [3]: 5.9 µM | EC50 [4]: 2.8 µM | Ke [8]: 2400 M⁻¹ | Ratio Ki [12]: > 10 | K [9]: 54 M⁻¹ s⁻¹ | Ratio Ki [13]: > 10 | EC50 (Trypanosoma cruzi [5]): 2.1 µM | Ratio IC50 (Trypanosoma cruzi [14]): 10 | Ki (Cruzipain [19]): 2 to 4.3 µM | Ki (Cathepsin S): 0.32 µM | selectivity ratio [15]: > 20 | K [16]: 0.00019 s⁻¹ | K [20]: 0.0012 to 0.004 s⁻¹ | Ki (Cathepsin B): 37 µM

O=C(N[C@@H](Cc1ccccc1)C(=O)N[C@H](/C=C/c1ccccn1)CCc1ccccc1)OCc1ccccc1
EC50 (Trypanosoma cruzi [11]): 5.9 µM | CC50 (NHDF): > 100 µM | CC50 (C2C12): > 10 µM | EC50 [3]: > 10 µM | EC50 [4]: 4 µM | EC50 (Trypanosoma cruzi [5]): > 20 µM

O=C(N[C@@H](Cc1ccccc1)C(=O)N[C@H](/C=C/c1ncccn1)CCc1ccccc1)OCc1ccccc1
Ki (Cruzipain [2]): > 35 µM
